We go through six compounds from patent US20240381871A1, “5-HALOALKOXY-PYRIMIDINE COMPOUNDS AS HERBICIDES” (SYNGENTA CROP PROTECTION AG, priority 2020, published 2024).

Assay type in all cases: in vivo
Test [1] relates to Ipomoea hederacea (IPOHE). Put plainly: Post-emergence herbicidal glasshouse test. The note with it: rate 250, evaluated after 13 days, the values are: phytotoxicity score (1-5 scale). The procedure: (§1) Seeds of a variety of test species are sown in standard soil in pots, Amaranthus retoflexus (AMARE), Abutilon theophrasti (ABUTH), Setaria faberi (SETFA), Echinochloa crus-galli (ECHCG) and Ipomoea hederacea (IPOHE). After cultivation for one day (pre-emergence) or after 8 days cultivation (post-emergence) under controlled conditions in a glasshouse (at 24/16° C., day/night; 14 hours light; 65% humidity), the plants are sprayed with an aqueous spray solution derived from the formulation of the technical active ingredient in acetone/water (50:50) solution containing 0.5% Tween 20 (polyoxyethelyene sorbitan monolaurate, CAS RN 9005-64-5). Compounds are applied at 1000 g/ha unless otherwise stated. The test plants are then grown in a glasshouse under controlled conditions in a glasshouse (at 24/16° C., day/night; 14 hours light; 65% humidity) and watered twice daily. After 13 days for pre and post-emergence, the test is evaluated for the percentage damage caused to the plant.

The test system of test [2] is Echinochloa crus-galli (ECHCG). Put plainly: Post-emergence herbicidal glasshouse test. The note with it: rate 250, evaluated after 13 days, the values are: phytotoxicity score (1-5 scale). The protocol:
as §1

Test [3] concerns Setaria faberi (SETFA). The test can be described thus: Post-emergence herbicidal glasshouse test. Conditions: rate 250, evaluated after 13 days, the values are:
The procedure:
as §1

Test [4] has as its system Abutilon theophrasti (ABUTH). Put plainly: Post-emergence herbicidal glasshouse test. The note with it: rate 250, evaluated after 13 days, the values are:
The procedure: as §1

Test [5] deals with Amaranthus retoflexus (AMARE). Put plainly: Post-emergence herbicidal glasshouse test. The note with it: rate 250, evaluated after 13 days, the values are: phytotoxicity score (1-5 scale). The protocol: as §1
A further test deals with Ipomea hederacea (IPOHE). Put plainly: Comparative post-emergence test, weed control. The note with it: Ipomoea hederacea, 336 h, after 14 days, read-out: IPOHE damage (100=total damage to plant; 0=no damage). The protocol:
(§2) Seeds of test species were sown in standard soil in pots. After cultivation for 10 days (post-emergence) under controlled conditions in a glasshouse (at 24/16° C., day/night; 14 hours light; 65% humidity), the plants were sprayed with an aqueous spray solution derived from the formulation of the technical active ingredient in 0.6 ml acetone and 45 ml formulation solution containing 10.6% Emulsogen EL (Registry number 61791-12-6), 42.2% N-methyl pyrrolidone, 42.2% dipropylene glycol monomethyl ether (CAS RN 34590-94-8) and 0.2% X-77 (CAS RN 11097-66-8). The test plants were then grown in a glasshouse under controlled conditions in a glasshouse (at 24/16° C., day/night; 14 hours light; 65% humidity) and watered twice daily. After 14 days, the test was evaluated (100=total damage to plant; 0=no damage to plant). • Weeds: Ipomea hederacea (IPOHE) • Crops: Zea mays (ZEAMX)

The subject of test [6] is Ipomoea hederacea (IPOHE). The test can be described thus: Pre-emergence herbicidal glasshouse test. Conditions: rate 250, evaluated after 13 days, the values are:
The protocol:
as §1

Test [7] concerns Echinochloa crus-galli (ECHCG). The test can be described thus: Pre-emergence herbicidal glasshouse test. The note with it: rate 250, evaluated after 13 days, the values are: phytotoxicity score (1-5). The procedure:
as §1

The subject of test [8] is Setaria faberi (SETFA). The test can be described thus: Pre-emergence herbicidal glasshouse test. The note with it: rate 250, evaluated after 13 days, the values are: phytotoxicity score (1-5). The protocol:
as §1

Test [9] relates to Abutilon theophrasti (ABUTH). Put plainly: Pre-emergence herbicidal glasshouse test. The note with it: rate 250, evaluated after 13 days, the values are:
The protocol: as §1

The subject of test [10] is Amaranthus retoflexus (AMARE). Put plainly: Pre-emergence herbicidal glasshouse test. The note with it: rate 250, evaluated after 13 days, the values are:
The procedure: as §1

In a further test the test system is Zea mays (ZEAMX). Put plainly: Comparative post-emergence test, crop damage. The note with it: 336 h, after 14 days, read-out: ZEAMX damage (100=total damage to plant; 0=no damage). The procedure:
as §2

In the case of `FC(F)Oc1cnc(Oc2ccccc2-c2cc(C(F)F)no2)nc1` [Compound 1.003], the Post-emergence activity IPOHE (% phytotoxicity) in test [1] stood at 4. In test [2], this compound yielded a Post-emergence activity ECHCG (% phytotoxicity) of 3. This compound also showed a Post-emergence activity SETFA (% phytotoxicity) in the test with Setaria faberi (SETFA) [3] of 3. Moreover, in test [4], the Post-emergence activity ABUTH (% phytotoxicity) turned out to be 4. The Post-emergence activity AMARE (% phytotoxicity) in [5] was found to be 4. Also, in the test on Ipomea hederacea (IPOHE), the pest or weed control at 2 g/ha amounted to 10%, the pest or weed control at 8 g/ha was determined as 20%, the pest or weed control at 60 g/ha was determined as 30% and the pest or weed control at 125 g/ha is 70%. In addition, in the test on Ipomea hederacea (IPOHE), the pest or weed control at 250 g/ha amounted to 70% and the pest or weed control at 500 g/ha worked out at 90%. In addition, the Pre-emergence activity IPOHE (% phytotoxicity) in [6] is 3. The Pre-emergence activity ECHCG (% phytotoxicity) in [7] was 2. This compound registered a Pre-emergence activity SETFA (% phytotoxicity) in the test on Setaria faberi (SETFA) [8] of 4. Further, the Pre-emergence activity ABUTH (% phytotoxicity) in [9] was determined as 4. The same compound had a Pre-emergence activity AMARE (% phytotoxicity) in [10] of 5. Moreover, in the test with Zea mays (ZEAMX), the plant injury at 2 g/ha worked out at 0%, the plant injury at 8 g/ha amounted to 0%, the plant injury at 60 g/ha worked out at 0% and the plant injury at 125 g/ha came to 0%. Further, in the test on Zea mays (ZEAMX), the plant injury at 250 g/ha is 0% and the plant injury at 500 g/ha was 10%.

In test [1], `FC(F)Oc1cnc(Oc2cccc(Cl)c2-c2cc(C(F)F)no2)nc1` [Compound 1.004] registered a Post-emergence activity IPOHE (% phytotoxicity) of 4. The compound also returned a Post-emergence activity ECHCG (% phytotoxicity) in [2] of 4. The compound also returned a Post-emergence activity SETFA (% phytotoxicity) in the test on Setaria faberi (SETFA) [3] of 4. Besides, the Post-emergence activity ABUTH (% phytotoxicity) in test [4] was determined as 4. In addition, the Post-emergence activity AMARE (% phytotoxicity) in test [5] is 4. In addition, in the test with Ipomea hederacea (IPOHE), the pest or weed control at 2 g/ha was determined as 20%, the pest or weed control at 8 g/ha is 50%, the pest or weed control at 60 g/ha amounted to 70% and the pest or weed control at 125 g/ha amounted to 70%. Moreover, in the test on Ipomea hederacea (IPOHE), the pest or weed control at 250 g/ha was found to be 90% and the pest or weed control at 500 g/ha came to 90%. In test [6], this compound came in with a Pre-emergence activity IPOHE (% phytotoxicity) of 5. In addition, the Pre-emergence activity ECHCG (% phytotoxicity) in test [7] was determined as 4. Besides, in the test with Setaria faberi (SETFA) [8], the Pre-emergence activity SETFA (% phytotoxicity) was 5. The same compound yielded a Pre-emergence activity ABUTH (% phytotoxicity) in test [9] of 4. Also, the Pre-emergence activity AMARE (% phytotoxicity) in test [10] was 5. In the test on Zea mays (ZEAMX), the plant injury at 2 g/ha was 0%, the plant injury at 8 g/ha amounted to 0%, the plant injury at 60 g/ha worked out at 0% and the plant injury at 125 g/ha is 10%. Besides, in the test on Zea mays (ZEAMX), the plant injury at 250 g/ha was 20% and the plant injury at 500 g/ha worked out at 40%.

In [1], `FC(F)Oc1cnc(Oc2cccc(Br)c2-c2cc(C(F)F)no2)nc1` [Compound 1.005] yielded a Post-emergence activity IPOHE (% phytotoxicity) of 5. The same compound yielded a Post-emergence activity ECHCG (% phytotoxicity) in test [2] of 3. The compound also showed a Post-emergence activity SETFA (% phytotoxicity) in the test on Setaria faberi (SETFA) [3] of 4. In addition, the Post-emergence activity ABUTH (% phytotoxicity) in test [4] worked out at 4. The Post-emergence activity AMARE (% phytotoxicity) in test [5] was 4. For the same compound, in the test on Ipomea hederacea (IPOHE), the pest or weed control at 2 g/ha stood at 30%, the pest or weed control at 8 g/ha worked out at 20%, the pest or weed control at 60 g/ha is 40% and the pest or weed control at 125 g/ha stood at 70%. In addition, in the test with Ipomea hederacea (IPOHE), the pest or weed control at 250 g/ha is 90% and the pest or weed control at 500 g/ha was found to be 80%. For the same compound, the Pre-emergence activity IPOHE (% phytotoxicity) in test [6] was determined as 4. In addition, the Pre-emergence activity ECHCG (% phytotoxicity) in test [7] was 3. In the test on Setaria faberi (SETFA) [8], the Pre-emergence activity SETFA (% phytotoxicity) was 5. In addition, the Pre-emergence activity ABUTH (% phytotoxicity) in test [9] worked out at 3. In addition, in test [10], the Pre-emergence activity AMARE (% phytotoxicity) was 5. For the same compound, in the test with Zea mays (ZEAMX), the plant injury at 60 g/ha was 10%, the plant injury at 125 g/ha turned out to be 20%, the plant injury at 250 g/ha came out at 30% and the plant injury at 500 g/ha is 30%.

In test [1], `N#Cc1cccc(Oc2ncc(OC(F)F)cn2)c1CCCC(F)(F)F` [Compound 1.025] came in with a Post-emergence activity IPOHE (% phytotoxicity) of 1. In test [2], this compound showed a Post-emergence activity ECHCG (% phytotoxicity) of 1. The same compound came in with a Post-emergence activity SETFA (% phytotoxicity) with Setaria faberi (SETFA) [3] of 1. The compound also gave a Post-emergence activity ABUTH (% phytotoxicity) in test [4] of 1. The Post-emergence activity AMARE (% phytotoxicity) in [5] worked out at 2. For the same compound, in test [6], the Pre-emergence activity IPOHE (% phytotoxicity) is 1. Moreover, the Pre-emergence activity ECHCG (% phytotoxicity) in [7] was 1. In the test with Setaria faberi (SETFA) [8], the Pre-emergence activity SETFA (% phytotoxicity) came to 1. In test [9], this compound had a Pre-emergence activity ABUTH (% phytotoxicity) of 1. For the same compound, in [10], the Pre-emergence activity AMARE (% phytotoxicity) is 1.

On to `O=C(CCC(F)(F)F)c1c(Cl)cccc1Oc1ncc(OC(F)F)cn1` [Compound 1.027, 1-[2-chloro-6-[5-(difluoromethoxy)pyrimidin-2-yl]oxy-phenyl]-4,4,4-trifluoro-butan-1-one], for which, in test [1], the Post-emergence activity IPOHE (% phytotoxicity) is 3. The same compound showed a Post-emergence activity ECHCG (% phytotoxicity) in [2] of 1. Besides, in the test on Setaria faberi (SETFA) [3], the Post-emergence activity SETFA (% phytotoxicity) was determined as 1. For the same compound, in [4], the Post-emergence activity ABUTH (% phytotoxicity) came out at 3. The compound also displayed a Post-emergence activity AMARE (% phytotoxicity) in test [5] of 4. Moreover, in test [6], the Pre-emergence activity IPOHE (% phytotoxicity) stood at 1. The compound also gave a Pre-emergence activity ECHCG (% phytotoxicity) in test [7] of 2. Also, the Pre-emergence activity SETFA (% phytotoxicity) in the test on Setaria faberi (SETFA) [8] amounted to 4. The Pre-emergence activity ABUTH (% phytotoxicity) in test [9] was found to be 3. For the same compound, in [10], the Pre-emergence activity AMARE (% phytotoxicity) is 4.

As for `O=C(CCC(F)(F)F)c1c(Br)cccc1Oc1ncc(OC(F)F)cn1` [Compound 1.028], the Post-emergence activity IPOHE (% phytotoxicity) in [1] came out at 2. The compound further yielded a Post-emergence activity ECHCG (% phytotoxicity) in [2] of 1. In the test with Setaria faberi (SETFA) [3], the Post-emergence activity SETFA (% phytotoxicity) amounted to 1. In addition, the Post-emergence activity ABUTH (% phytotoxicity) in test [4] was found to be 2. Moreover, the Post-emergence activity AMARE (% phytotoxicity) in test [5] amounted to 5. The same compound registered a Pre-emergence activity IPOHE (% phytotoxicity) in [6] of 1. In test [7], this compound returned a Pre-emergence activity ECHCG (% phytotoxicity) of 1. This compound registered a Pre-emergence activity SETFA (% phytotoxicity) with Setaria faberi (SETFA) [8] of 5. Further, in test [9], the Pre-emergence activity ABUTH (% phytotoxicity) was determined as 2. This compound also yielded a Pre-emergence activity AMARE (% phytotoxicity) in [10] of 5.
